Reference: EP4029501A1, “COMBINATION OF POLYAROMATIC UREA DERIVATIVES AND GLUCOCORTICOID OR HDAC INHIBITOR FOR THE TREATMENT OF DISEASES OR CONDITIONS ASSOCIATED WITH MUSCLE CELLS AND/OR SATELLITE CELLS” (Anagenesis Biotechnologies, priority 2021, dated 2022)

Test system: muscle progenitors derived from DMD hiPSC
Assay: Myotube assay: total myotube area per well (alpha-actinin staining)
Assay type: cell-based, human
Settings: Homo sapiens, Myotube, 72 h, DMD or WT cell source not given; for Emax: efficacy, MA = normalized Myotube Area, 3 days incubation; for EC50: myogenic activity, half-maximal generation of myotubes, 10 points dose-response 1.5 nM to 30 µM, 3 days
Summary of the method: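 DMD hiPSC-derived muscle progenitors (NCRM-1 background) plated at 3500 cells/well in K5 medium with 5 µM Y-27632, then exposed to compound at 1.5 nM–30 µM for 3 days at 37°C. Cells fixed on day 7, alpha-actinin-immunostained and total myotube area per well quantified; duplicates averaged, EC50 and normalized myotube area derived.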

Work on `CC(C)(C)c1cc(NC(=O)Nc2ccc(C(=O)c3ccncc3)cc2)n(-c2ccccc2)n1` [(cs), 1-(3-(tert-butyl)-1-phenyl-1 H-pyrazol-5-yl)-3-(4-isonicotinoylphenyl)urea] yielded an Emax of 25 to 50% and an EC50 of at least 5000 nM.
`CSc1cc(Oc2ccnc3c2OCC(=O)N3)ccc1NC(=O)Nc1cc(C(C)(C)C)nn1-c1ccccc1` [(ct), 1-(3-(tert-butyl)-1-phenyl-1H-pyrazol-5-yl)-3-(2-(methylthio)-4-((3-oxo-3,4-dihydro-2H-pyrido[3,2-b][1,4]oxazin-8-yl)oxy)phenyl)urea] was tested, and the Emax was at least 75% and the EC50 was under 500 nM.
For `CC(C)(C)c1cnc(NC(=O)Nc2ccc(Oc3ccnc4c3CCC(=O)N4)c3ccccc23)s1` [(cu), 1-(5-(tert-butyl)thiazol-2-yl)-3-(4-((7-oxo-5,6,7,8-tetrahydro-1,8-naphthyridin-4-yl)oxy)naphthalen-1-yl)urea], the Emax was at least 75% and the EC50 was under 500 nM.
`CCOC(=O)Nc1cc(Oc2ccc(NC(=O)Nc3cc(C(C)(C)C)nn3-c3ccccc3)c(SC)c2)ccn1` [(cv), ethyl (4-(4-(3-(3-(tert-butyl)-1-phenyl-1H-pyrazol-5-yl)ureido)-3-(methylthio)phenoxy)pyridin-2-yl)carbamate] gave an Emax of at least 75% and an EC50 of under 500 nM.
For `CC(C)(C)c1cc(NC(=O)Nc2cccc(Oc3ccnc4[nH]c(=O)cnc34)c2F)n(-c2ccccc2)n1` [(cw), 1-(3-(tert-butyl)-1-phenyl-1 H-pyrazol-5-yl)-3-(2-fluoro-3-((3-oxo-3,4-dihydropyrido[2,3-b]pyrazin-8-yl)oxy)phenyl)urea], the Emax was at least 75% and the EC50 was at least 5000 nM.
With `CSc1cc(Oc2ccnc(NC(=O)OCc3ccccc3)c2)ccc1NC(=O)Nc1cc(C(C)(C)C)nn1-c1ccccc1` [(cx), benzyl (4-(4-(3-(3-(tert-butyl)-1-phenyl-1H-pyrazol-5-yl)ureido)-3-(methylthio)phenoxy)pyridin-2-yl)carbamate] the Emax was at least 75% and the EC50 was 500 to 1000 nM.
In the case of `CSc1cc(Oc2ccnc3c2OCCN3)ccc1NC(=O)Nc1cc(C(C)(C)C)nn1-c1ccccc1` [(cy), 1-(3-(tert-butyl)-1-phenyl-1H-pyrazol-5-yl)-3-(4-((3,4-dihydro-2H-pyrido[3,2-b][1,4]oxazin-8-yl)oxy)-2-(methylthio)phenyl)urea], the Emax is reported as at least 75% and the EC50 is reported as 500 to 1000 nM.
Compound `CSc1cc(Oc2ccnc3c2CCC(=O)N3)ccc1NC(=O)Nc1cc(C(C)(C)C)no1` [(cz), 1-(3-(tert-butyl)isoxazol-5-yl)-3-(2-(methylthio)-4-((7-oxo-5,6,7,8-tetrahydro-1,8-naphthyridin-4-yl)oxy)phenyl)urea] has an Emax of at least 75% and an EC50 of 500 to 1000 nM.
`O=C(Nc1ccc(Oc2ccnc3[nH]c(=O)cnc23)cc1F)Nc1cc(C2(C(F)(F)F)CC2)nn1-c1ccccc1` [(d), 1-(2-fluoro-4-((3-oxo-3,4-dihydropyrido[2,3-b]pyrazin-8-yl)oxy)phenyl)-3-(1-phenyl-3-(1-(trifluoromethyl)cyclopropyl)-1 H-pyrazol-5-yl)urea] showed an Emax of 50 to 75% and an EC50 of 1000 to 5000 nM.
`CCOC(=O)Nc1cc(Oc2ccc(NC(=O)Nc3cc(C(C)(C)C)nn3-c3ccccc3)c3ccccc23)ccn1` [(da), ethyl (4-((4-(3-(3-(tert-butyl)-1-phenyl-1 H-pyrazol-5-yl)ureido)naphthalen-1-yl)oxy)pyridin-2-yl)carbamate] was tested, and the Emax was at least 75% and the EC50 was under 500 nM.
Work on `CCOC(=O)Nc1cc(Oc2ccc(NC(=O)Nc3cc(C(C)(C)C)no3)c3ccccc23)ccn1` [(db), ethyl (4-((4-(3-(3-(tert-butyl)isoxazol-5-yl)ureido)naphthalen-1-yl)oxy)pyridin-2-yl)carbamate] yielded an Emax of at least 75% and an EC50 of under 500 nM.
Compound `CCOC(=O)Nc1cc(Oc2ccc(NC(=O)Nc3ncc(C(C)(C)C)s3)c3ccccc23)ccn1` [(dc), ethyl (4-((4-(3-(5-(tert-butyl)thiazol-2-yl)ureido)naphthalen-1-yl)oxy)pyridin-2-yl)carbamate] has an Emax of at least 75% and an EC50 of under 500 nM.
`CSc1cc(Oc2ccnc3[nH]c(=O)cnc23)ccc1NC(=O)Nc1cc(C(C)(C)C)nn1-c1ccc(CN2CCOCC2)cc1` [(dd), 1-(3-(tert-butyl)-1-(4-(morpholinomethyl)phenyl)-1 H-pyrazol-5-yl)-3-(2-(methylthio)-4-((3-oxo-3,4-dihydropyrido[2,3-b]pyrazin-8-yl)oxy)phenyl)urea] gave an Emax of at least 75% and an EC50 of under 500 nM.
`CCOC(=O)Nc1cc(Oc2ccc(NC(=O)Nc3cc(C(C)(C)C)no3)c(SC)c2)ccn1` [(de), ethyl (4-(4-(3-(3-(tert-butyl)isoxazol-5-yl)ureido)-3-(methylthio)phenoxy)pyridin-2-yl)carbamate] was tested, and the Emax was at least 75% and the EC50 was under 500 nM.
`CCOC(=O)Nc1cc(Oc2ccc(NC(=O)Nc3ncc(C(C)(C)C)s3)c(SC)c2)ccn1` [(df), ethyl (4-(4-(3-(5-(tert-butyl)thiazol-2-yl)ureido)-3-(methylthio)phenoxy)pyridin-2-yl)carbamate] showed an Emax of at least 75% and an EC50 of under 500 nM.
With `CC(C)(C)c1cc(NC(=O)Nc2ccc(Oc3ccnc4c3CCC(=O)N4)c3ccccc23)on1` [(dg), 1-(3-(tert-butyl)isoxazol-5-yl)-3-(4-((7-oxo-5,6,7,8-tetrahydro-1,8-naphthyridin-4-yl)oxy)naphthalen-1-yl)urea] the Emax was at least 75% and the EC50 was under 500 nM.
`CSc1cc(Oc2ccnc3[nH]c(=O)cnc23)ccc1NC(=O)Nc1cc(C(C)(C)C)on1` [(dh), 1-(5-(tert-butyl)isoxazol-3-yl)-3-(2-(methylthio)-4-((3-oxo-3,4-dihydropyrido[2,3-b]pyrazin-8-yl)oxy)phenyl)urea] was tested, and the Emax was at least 75% and the EC50 was 1000 to 5000 nM.
`CCOC(=O)Nc1cc(Oc2ccc(NC(=O)Nc3cc(C(C)(C)C)on3)c(SC)c2)ccn1` [(di), ethyl (4-(4-(3-(5-(tert-butyl)isoxazol-3-yl)ureido)-3-(methylthio)phenoxy)pyridin-2-yl)carbamate] showed an Emax of at least 75% and an EC50 of under 500 nM.
Work on `CC(=O)Nc1cc(Oc2ccc(NC(=O)Nc3cc(C(C)(C)C)nn3-c3ccccc3)c3ccccc23)ccn1` [(dj), N-(4-((4-(3-(3-(tert-butyl)-1-phenyl-1H-pyrazol-5-yl)ureido)naphthalen-1-yl)oxy)pyridin-2-yl)acetamide] yielded an Emax of at least 75% and an EC50 of under 500 nM.
`CSc1cc(Oc2ccncc2)ccc1NC(=O)Nc1cc(C(C)(C)C)nn1-c1ccccc1` [(dk), 1-(3-(tert-butyl)-1-phenyl-1 H-pyrazol-5-yl)-3-(2-(methylthio)-4-(pyridin-4-yloxy)phenyl)urea] gave an Emax of 25 to 50% and an EC50 of at least 5000 nM.
In the case of `CSc1cc(Oc2ccnc(NS(C)(=O)=O)c2)ccc1NC(=O)Nc1cc(C(C)(C)C)no1` [(dl), N-(4-(4-(3-(3-(tert-butyl)isoxazol-5-yl)ureido)-3-(methylthio)phenoxy)pyridin-2-yl)methanesulfonamide], the Emax is reported as at least 75% and the EC50 is reported as 1000 to 5000 nM.
With `CSc1cc(Oc2ccnc3[nH]c(=O)[nH]c23)ccc1NC(=O)Nc1cc(C(C)(C)C)nn1-c1ccccc1` [(dm), 1-(3-(tert-butyl)-1-phenyl-1H-pyrazol-5-yl)-3-(2-(methylthio)-4-((2-oxo-2,3-dihydro-1H-imidazo[4,5-b]pyridin-7-yl)oxy)phenyl)urea] the Emax was at least 75% and the EC50 was 1000 to 5000 nM.
Work on `CSc1cc(NC(=O)Nc2cc(C(C)(C)C)nn2-c2ccccc2)ccc1Oc1ccnc2[nH]c(=O)cnc12` [(dn), 1-(3-(tert-butyl)-1-phenyl-1H-pyrazol-5-yl)-3-(3-(methylthio)-4-((3-oxo-3,4-dihydropyrido[2,3-b]pyrazin-8-yl)oxy)phenyl)urea] yielded an Emax of at least 75% and an EC50 of 500 to 1000 nM.
For `CSc1cc(Oc2ccnc3[nH]c(=O)ccc23)ccc1NC(=O)Nc1cc(C(C)(C)C)nn1-c1ccccc1` [(do), 1-(3-(tert-butyl)-1-phenyl-1H-pyrazol-5-yl)-3-(2-(methylthio)-4-((7-oxo-7,8-dihydro-1,8-naphthyridin-4-yl)oxy)phenyl)urea], the Emax was at least 75% and the EC50 was under 500 nM.
For `CSc1cc(Oc2ccnc3[nH]c(=O)cnc23)ccc1NC(=O)Nc1cc(C(C)(C)C)nn1-c1ccc(CN(C)C)cc1` [(dp), 1-(3-(tert-butyl)-1-(4-((dimethylamino)methyl)phenyl)-1H-pyrazol-5-yl)-3-(2-(methylthio)-4-((3-oxo-3,4-dihydropyrido[2,3-b]pyrazin-8-yl)oxy)phenyl)urea], the Emax was at least 75% and the EC50 was under 500 nM.
For `CSc1cc(Oc2ccnc(NC(=O)CO)c2)ccc1NC(=O)Nc1cc(C(C)(C)C)nn1-c1ccccc1` [(dq), N-(4-(4-(3-(3-(tert-butyl)-1-phenyl-1H-pyrazol-5-yl)ureido)-3-(methylthio)phenoxy)pyridin-2-yl)-2-hydroxyacetamide], the Emax was at least 75% and the EC50 was 500 to 1000 nM.
With `O=C(Nc1ccc(Oc2ccnc3[nH]c(=O)cnc23)cc1F)Nc1cc(C2CC2)nn1-c1ccccc1` [(e), 1-(3-cyclopropyl-1-phenyl-1 H-pyrazol-5-yl)-3-(2-fluoro-4-((3-oxo-3,4-dihydropyrido[2,3-b]pyrazin-8-yl)oxy)phenyl)urea] the Emax was 25 to 50% and the EC50 was at least 5000 nM.
`CC1(c2cc(NC(=O)Nc3ccc(Oc4ccnc5[nH]c(=O)cnc45)cc3F)n(-c3ccccc3)n2)COC1` [(f), 1-(2-fluoro-4-((3-oxo-3,4-dihydropyrido[2,3-b]pyrazin-8-yl)oxy)phenyl)-3-(3-(3-methyloxetan-3-yl)-1-phenyl-1 H-pyrazol-5-yl)urea] showed an Emax of 50 to 75% and an EC50 of at least 5000 nM.
Compound `CC(C)Cc1cc(NC(=O)Nc2ccc(Oc3ccnc4[nH]c(=O)cnc34)cc2F)n(-c2ccccc2)n1` [(g), 1-(2-fluoro-4-((3-oxo-3,4-dihydropyrido[2,3-b]pyrazin-8-yl)oxy)phenyl)-3-(3-isobutyl-1-phenyl-1H-pyrazol-5-yl)urea] has an Emax of at least 75% and an EC50 of 500 to 1000 nM.
In the case of `CC(C)(C)c1cc(NC(=O)Nc2ccc(Oc3ccnc4[nH]c(=O)cnc34)cc2F)[nH]n1` [(h), 1-(3-(tert-butyl)-1H-pyrazol-5-yl)-3-(2-fluoro-4-((3-oxo-3,4-dihydropyrido[2,3-b]pyrazin-8-yl)oxy)phenyl)urea], the Emax is reported as 25 to 50% and the EC50 is reported as at least 5000 nM.
